Experimental data taken from paper PMC4658577 (Frontiers in Plant Science, 2015).

Columns and labels:
Format in all cases: cell-based
[1] = target: T1, cystic fibrosis transmembrane conductance regulator (CFTR) (Homo sapiens, UniProt P13569); experiment: gradient concentrations inhibiting lignan-activated CFTR iodide influx in FRT cells
T1 construct: human wild-type CFTR cDNA

[2] = target: T2, ANO1/CaCC (TMEM16A) (Homo sapiens, UniProt Q5XXA6); experiment: Eact-induced short-circuit current in ANO1-expressing FRT cells, […]
T2 construct: ANO1 cDNA
T2 sequence (Q5XXA6 1-986): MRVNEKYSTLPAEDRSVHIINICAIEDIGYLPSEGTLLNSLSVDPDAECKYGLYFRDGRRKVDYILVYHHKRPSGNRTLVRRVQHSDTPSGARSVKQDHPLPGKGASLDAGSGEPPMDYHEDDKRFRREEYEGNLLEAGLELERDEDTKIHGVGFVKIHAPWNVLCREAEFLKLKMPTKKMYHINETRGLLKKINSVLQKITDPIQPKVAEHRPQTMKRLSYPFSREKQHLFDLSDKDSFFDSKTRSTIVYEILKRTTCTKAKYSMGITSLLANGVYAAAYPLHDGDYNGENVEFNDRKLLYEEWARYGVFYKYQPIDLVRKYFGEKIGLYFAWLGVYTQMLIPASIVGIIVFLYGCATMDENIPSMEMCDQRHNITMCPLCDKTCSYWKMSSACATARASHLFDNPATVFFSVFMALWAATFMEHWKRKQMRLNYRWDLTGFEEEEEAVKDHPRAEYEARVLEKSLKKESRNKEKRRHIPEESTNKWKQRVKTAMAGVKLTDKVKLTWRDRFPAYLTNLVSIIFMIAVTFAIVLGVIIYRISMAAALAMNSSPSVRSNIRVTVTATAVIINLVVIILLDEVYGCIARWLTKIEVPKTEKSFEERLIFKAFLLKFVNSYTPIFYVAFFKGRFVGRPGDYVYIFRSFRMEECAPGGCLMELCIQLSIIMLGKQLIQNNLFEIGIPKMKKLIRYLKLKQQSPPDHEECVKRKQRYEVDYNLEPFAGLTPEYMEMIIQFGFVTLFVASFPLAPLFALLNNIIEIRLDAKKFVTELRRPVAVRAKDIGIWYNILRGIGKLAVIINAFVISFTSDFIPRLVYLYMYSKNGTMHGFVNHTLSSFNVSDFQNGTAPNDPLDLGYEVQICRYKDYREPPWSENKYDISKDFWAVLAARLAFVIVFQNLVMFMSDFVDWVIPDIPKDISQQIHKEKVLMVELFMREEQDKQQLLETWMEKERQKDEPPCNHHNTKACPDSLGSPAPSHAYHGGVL

[3] = target: T2, ANO1/CaCC (TMEM16A); experiment: Eact-induced short-circuit current in ANO1-expressing FRT cells

T1 sequence (P13569 whole entry): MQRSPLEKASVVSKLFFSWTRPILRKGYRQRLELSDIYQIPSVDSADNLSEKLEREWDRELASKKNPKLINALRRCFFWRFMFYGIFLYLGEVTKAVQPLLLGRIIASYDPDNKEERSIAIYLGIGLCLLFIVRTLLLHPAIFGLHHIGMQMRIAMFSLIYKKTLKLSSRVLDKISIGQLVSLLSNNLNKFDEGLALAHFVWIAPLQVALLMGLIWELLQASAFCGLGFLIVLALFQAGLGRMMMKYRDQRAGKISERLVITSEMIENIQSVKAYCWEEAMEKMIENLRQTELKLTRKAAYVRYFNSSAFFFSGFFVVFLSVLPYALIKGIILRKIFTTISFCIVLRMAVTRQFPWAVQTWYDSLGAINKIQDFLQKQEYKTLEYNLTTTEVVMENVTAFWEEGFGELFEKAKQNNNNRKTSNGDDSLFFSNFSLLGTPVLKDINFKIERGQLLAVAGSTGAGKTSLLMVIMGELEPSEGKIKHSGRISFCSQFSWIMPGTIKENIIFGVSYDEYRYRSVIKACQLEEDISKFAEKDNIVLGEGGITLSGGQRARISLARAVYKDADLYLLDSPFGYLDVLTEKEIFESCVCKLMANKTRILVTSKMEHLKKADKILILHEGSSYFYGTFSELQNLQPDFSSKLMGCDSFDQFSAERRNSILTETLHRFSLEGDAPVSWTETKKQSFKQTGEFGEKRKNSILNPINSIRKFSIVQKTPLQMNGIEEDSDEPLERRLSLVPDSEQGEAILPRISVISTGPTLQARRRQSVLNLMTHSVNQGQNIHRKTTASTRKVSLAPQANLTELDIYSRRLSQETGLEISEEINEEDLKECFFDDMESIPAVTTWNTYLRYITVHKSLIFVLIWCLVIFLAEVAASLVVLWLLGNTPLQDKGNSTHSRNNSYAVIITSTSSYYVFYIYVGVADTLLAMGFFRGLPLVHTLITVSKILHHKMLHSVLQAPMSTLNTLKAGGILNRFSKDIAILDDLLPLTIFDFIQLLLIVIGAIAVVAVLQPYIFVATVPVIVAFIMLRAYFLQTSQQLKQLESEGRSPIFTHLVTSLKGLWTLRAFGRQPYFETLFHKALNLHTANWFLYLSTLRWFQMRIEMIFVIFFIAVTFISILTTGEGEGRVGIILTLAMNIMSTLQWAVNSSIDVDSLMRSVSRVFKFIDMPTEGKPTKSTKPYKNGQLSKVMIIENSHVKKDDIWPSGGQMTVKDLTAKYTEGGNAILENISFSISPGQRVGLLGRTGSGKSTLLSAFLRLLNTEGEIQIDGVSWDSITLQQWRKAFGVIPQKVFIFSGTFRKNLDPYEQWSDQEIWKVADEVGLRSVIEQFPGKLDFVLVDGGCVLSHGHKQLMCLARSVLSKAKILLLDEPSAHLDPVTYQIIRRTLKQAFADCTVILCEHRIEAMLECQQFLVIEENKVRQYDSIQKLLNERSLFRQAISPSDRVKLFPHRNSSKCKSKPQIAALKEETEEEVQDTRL

## O=C(O)c1ccc(/C=C2\SC(=S)N(c3cccc(C(F)(F)F)c3)C2=O)cc1 [compound 172, CFTRinh-172]
[1]
  gradient concentrations inhibiting lignan-activated CFTR iodide influx in FRT ce: activation effect of these compounds could be inhibited by gradient concentrations of the known CFTR inhibitor CFTRinh-172

## CCc1c(C)nc(SCC(=O)Nc2nc(-c3ccc(OC)cc3)cs2)[nH]c1=O [16A, T16Ainh-A01]
[2]
  Eact-induced short-circuit current in ANO1-expressing FRT cells, 30 μM: Eact-induced ANO1-mediated short-circuit current was completely abolished by the specific inhibitor of ANO1 T16Ainh-A01

## COc1ccc([C@H]2OC[C@H]3[C@@H]2CO[C@@H]3c2ccc(OC)c(OC)c2)cc1OC [eudesmin]
[3]
  IC50: 200 µM
